Here are results for one compound from patent publication US20220202906A1, “VASOACTIVE INTESTINAL PEPTIDE (VIP) FOR USE IN THE TREATMENT OF DRUG-INDUCED PNEUMONITIS” (ADVITA L[…], priority 2019, published 2022).

Data set [1] in a line: Aerosol characterisation with M-Neb dose+ mesh nebulizer MN-300/8 and COPLEY next generation impactor (NGI). It is filed as physicochemical. Particulars: VIP dissolved in 0.9% NaCl. The source says: Using the M-Neb® dose+ mesh nebulizer MN-300/8 and the respective mouthpiece, VIP has been tested with the COPLEY next generation impactor (NGI). The mass median aerodynamic diameter (MMD) of VIP dissolved in 0.9% NaCl was 3.3-3.5 μm per emitted particle.

Data set [2] in a line: Off-label inhaled VIP therapy in a patient with checkpoint inhibitor-induced pneumonitis. It is filed as in vivo, human. How it is done: A patient, who was treated with checkpoint inhibitors, developed CIP and steroid treatment led to insufficient control. Because of missing other approved therapeutic options the patient was treated off-label with inhaled VIP therapy initiated at a dose of 4×70 μg/ml per day dosage (280 μg per day with overnight break).

The conditions of data set [3]: human, in vivo.
The nature of data set [4]: Blood level of VIP after aerosol administration. Format: in vivo. The text has this: This is especially unexpected as the treatment with aerosols is normally regarded to be only efficient if inhaled noxes are the cause of the pulmonary defects. In the context of the present invention, a systemic substance is, however, the cause of drug-induced pneumonitis (such as CIP) and therefore topic administration is not expected to have any great effect.

For data set [5] the following is noted: sarcoidosis, inhaled aerosolized VIP; cited from earlier work.
For data set [6] the following is noted: 50 μg four times daily by inhalation, 28 days; cited from earlier work.
Setting [7] is: CIP patient, inhaled VIP 280 μg per day.

Take `CC[C@H](C)[C@H](NC(=O)[C@H](CO)NC(=O)[C@H](CC(N)=O)NC(=O)[C@H](CC(C)C)NC(=O)[C@H](Cc1ccc(O)cc1)NC(=O)[C@H](CCCCN)NC(=O)[C@H](CCCCN)NC(=O)[C@@H](NC(=O)[C@H](C)NC(=O)[C@H](CCSC)NC(=O)[C@H](CCC(N)=O)NC(=O)[C@H](CCCCN)NC(=O)[C@H](CCCNC(=N)N)NC(=O)[C@H](CC(C)C)NC(=O)[C@H](CCCNC(=N)N)NC(=O)[C@@H](NC(=O)[C@H](Cc1ccc(O)cc1)NC(=O)[C@H](CC(N)=O)NC(=O)[C@H](CC(=O)O)NC(=O)[C@@H](NC(=O)[C@H](Cc1ccccc1)NC(=O)[C@@H](NC(=O)[C@H](C)NC(=O)[C@H](CC(=O)O)NC(=O)[C@H](CO)NC(=O)[C@@H](N)Cc1c[nH]cn1)C(C)C)[C@@H](C)O)[C@@H](C)O)C(C)C)C(=O)N[C@@H](CC(C)C)C(=O)N[C@@H](CC(N)=O)C(N)=O` [VIP, Vasoactive intestinal peptide]: in data set [1] (M-Neb dose+ MN-300/8), the “dose delivered at the mouthpiece” value is 90.2 % of the tested dosages and the “particles with a diameter” value was found to be 85.7%. In addition, the “mass median aerodynamic diameter (MMD) per emitted particle” value in data set [1] (M-Neb dose+ MN-300/8 with mouthpiece) was 3.3-3.5 μm. Besides, in data set [2] (setting [7]), the “alveolar inflammation as measured by bronchoalveolar lavage” value was “dampened by an increase of regulatory T-cell”, the “patient's general health” value is “ameliorated” and the “radiological alterations (e.g. consolidations)” value is reported as “diminished”. In data set [2] (CIP patient, inhaled VIP 4×70 μg per day (280 μg per day)), the lung function entry is listed as “normalized within six months of treatment”. Besides, the “side effects on the patient's immune system” value in data set [2] (VIP inhalation in CIP) is “does not suffer from severe side effects on the patient's immune system”. Besides, the clinical outcome in data set [3] is “clinical amelioration”. Also, the “blood level of VIP” value in data set [4] was “does not lead to an elevated blood level of VIP”. Besides, in data set [5], the TNF-release entry was “decrease of TNF-release”, the “regulatory T-cells” value is recorded as “increase of regulatory T-cells” and the symptoms result is “symptomatic relief”. Further, the “tolerability / adverse events” value in data set [6] is listed as “well tolerated without serious adverse events”.
